One assay concerns conscious rats. In words: Opiate-induced respiratory depression; whole-body plethysmography in conscious rats. It is filed as in vivo. Conditions: for increase in the respiratory activity: before morphine. The protocol:
Whole-body plethysmography is used to assess respiratory rate (fR, in breaths per minute) and tidal volume (VT, in microliters per gram) in conscious rats. Animals are placed in a recording chamber (˜700 ml) flushed continuously with a humidified mixture of 79% nitrogen and 21% oxygen (temperature 22-24° C.). Level of carbon dioxide (CO2) in the chamber is monitored online using a fast-response CO2 analyser. Animals are allowed ˜40 min to acclimatize to the chamber environment at normoxia-normocapnia (21% oxygen, 79% nitrogen and <0.3% CO2) before measurements of baseline ventilation are taken.
Respiratory depression is induced in conscious rats by intramuscular (10 mg/kg) administration of morphine.
Data are acquired using Power1401 interface, saved and analyzed off-line using Spike2 software (CED Limited, Cambridge, UK).
Parameters measured included fR—respiratory rate (in breaths per minute); VT—tidal volume (in microliters per gram of body weight); VE—minute ventilation fR×VT (in microliters per gram of body weight per minute).
The data were analysed by ANOVA followed by the Tukey-Kramer's post hoc test, Student's t-test, or non-parametric Wilcoxon-Mann-Whitney U test, as appropriate. Data are presented as means±SEM.

Assay [1] deals with Methyl-CpG-binding protein 2 (Mecp) null mice. In words: Rett's syndrome model; plethysmography in Mecp2 null mice. It is filed as in vivo. Conditions: tianeptine 10 mg/kg i.p. in saline, 5.6 Hz before treatment, p=0.037, paired t test. The protocol: Methyl-CpG-binding protein 2 (Mecp) null mice were of the B6.129P2(C)-Mecp2^tm1.1Bird strain. Mice were produced and genotyped using published methods (Miralvès J, Magdeleine E, Joly E. Design of an improved set of oligonucleotide primers for genotyping MeCP2^tm1.1Bird KO mice by PCR. Mol Neurodegener. 2007; 2:16; Bissonnette J M, Knopp S J. Separate respiratory phenotypes in methyl-CpG-binding protein 2 (Mecp2) deficient mice. Pediatr Res. 2006; 59:513-518).
Breathing was recorded over a 60 min control period following drug treatment in the same way as for the respiratory depression experiments, with the same equipment and software. After the recording sessions, mice were euthanized with CO2.

The values below come from patent US9610291B2, “Treatment of respiratory depression” (NUMEDICUS LIMITED, priority 2012, dated 2017).

As to `CN1c2ccccc2C(NCCCCCCC(=O)O)c2ccc(Cl)cc2S1(=O)=O` (centres unmarked) [tianeptine, 7-[(3-chloro-6,11-dihydro-6-methyl-dibenzo[c,f][1,2]thiazepin-11-yl)amino]heptanoic acid S,S-dioxide], the “increase in the respiratory activity” value was roughly 30% in the assay on conscious rats (tianeptine 2 mg/kg ip, 5 min after administration, conscious rats, p<0.05) and “not observed” in the assay on conscious rats (tianeptine 10 mg/kg, rats). Further, the morphine-induced respiratory depression result is “appears to prevent morphine-induced respiratory depression” with conscious rats (tianeptine 2 mg/kg ip, morphine 10 mg/kg intramuscular 5 minutes after tianeptine, conscious rats) and “prevented” in the assay with conscious rats (tianeptine 10 mg/kg, followed by morphine 10 mg/kg intramuscular, rats). The “peak dominant frequency (respiratory frequency pattern) after drug treatment” value in assay [1] is on record as 4.8 Hz.
